Our source for the inhibition and inhibition in vivo values is US5500424A, “Pyrimidine and pyridine derivatives, their production and use” (Nihon Nohyaku Co., Ltd., priority 1993, dated 1996).

As usually defined, the inhibition is the relative decrease from the control value, in per cent.

The structures appear in SMILES notation.

Test [1] has as its target T1, acyl-CoA:cholesterol acyltransferase (ACAT) (Oryctolagus cuniculus, UniProt G1SFD9).
T1 construct: The intestinal mucosa of a white rabbit was homogenized and microsomal fraction was obtained; from tissue; host or cells: white rabbit intestinal mucosa, microsomal fraction
T1 sequence (G1SFD9 1-524): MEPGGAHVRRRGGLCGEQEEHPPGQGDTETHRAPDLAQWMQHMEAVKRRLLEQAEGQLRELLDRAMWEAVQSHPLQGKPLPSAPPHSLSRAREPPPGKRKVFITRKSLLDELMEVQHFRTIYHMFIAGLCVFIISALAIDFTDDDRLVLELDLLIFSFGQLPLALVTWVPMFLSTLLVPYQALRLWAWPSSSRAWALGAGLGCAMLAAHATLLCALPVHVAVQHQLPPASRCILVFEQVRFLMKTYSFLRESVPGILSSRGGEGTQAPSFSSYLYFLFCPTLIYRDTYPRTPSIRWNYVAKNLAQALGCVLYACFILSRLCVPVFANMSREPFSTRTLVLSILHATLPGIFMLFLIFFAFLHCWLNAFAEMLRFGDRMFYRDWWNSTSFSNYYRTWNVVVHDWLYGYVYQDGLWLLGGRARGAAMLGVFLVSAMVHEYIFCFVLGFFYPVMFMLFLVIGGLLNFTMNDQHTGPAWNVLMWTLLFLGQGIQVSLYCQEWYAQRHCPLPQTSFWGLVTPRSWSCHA
The test is described as follows: Inhibitory activity on acyl-CoA:cholesterol acyltransferase (ACAT). The note with it: rabbit intestinal mucosa microsomes, read-out: Inhibition rate. The test is classed as biochemical, white rabbit. How it is done:
Inhibitory activity on acyl-CoA:cholesterol acyltransferase (ACAT)
The enzyme used in the test was prepared according to the method of Heider et al. [J. Lipid, Res. 24, 1127 (1983)]. The intestinal mucosa of a white rabbit was homogenized and microsomal fraction was obtained by stepwise centrifugation. The microsomal fraction was suspended in 0.154M phosphate buffer (pH 7.4) and stored at -80° C. until use.
ACAT activity was determined by a modification of the method of Helgerud et al. [J. Lipid Res. 22, 271 (1981)] by measuring radioactivity incorporated into cholesterol esters from [1-^14 C]oleyl-CoA, as an indication. As to the ACAT-inhibitory activity of each compound to be tested, the inhibition rate was calculated by the following equation. [formula]

Test [2] concerns hamsters fed on a high-cholesterol diet. The test is described as follows: Serum cholesterol lowering activity in hamsters fed on a high-cholesterol diet. The format is in vivo, Male Syrian hamsters. The note with it: Mesocricetus auratus, 30 mg/kg per day for 4 days, 24 hours after last administration, read-out: Reduction rate of total serum cholesterol concentration. How it is done:
Serum cholesterol lowering activity in hamsters fed on a high-cholesterol diet
Male Syrian hamsters of 10-week-old were divided into three groups. The first group (normal group) was fed an ordinary diet for 4 days. The second group (control group) was fed a high cholesterol diet (containing 0.5% cholesterol and 8.0% coconut oil) for 4 days. The third group (treated group) was fed a high cholesterol diet and was treated with a compound for 4 days. Simultaneously with the beginning of the above feeding, the compound was suspended in a 0.5% carboxymethyl cellulose solution and administered to the treated group, in a dose of 30 mg (in terms of the compound) per kg of body weight per day for 4 days. A 0.5% carboxymethyl cellulose solution was also administered to the normal group and the control group in the same manner as above.
After 24 hours of the last administration, blood was collected and the cholesterol concentration in serum was measured by an enzymatic method. The reduction rate of the total serum cholesterol concentration was calculated from values obtained for the three groups by the following equation. [formula] wherein A: the serum cholesterol concentration of the control group.
B: the serum cholesterol concentration of the treated group.
C: the serum cholesterol concentration of the normal group.

Take `CC(C)c1cccc(C(C)C)c1NC(=O)Nc1cnc(-c2ccccc2)nc1-c1ccc(Cl)cc1Cl` [Compound 30, N-[4-(2,4-Dichlorophenyl)-2-phenylpyrimidin-5-yl]-N'-[2,6-diisopropylphenyl)urea]: in test [1], the inhibition at 0.01 µM stood at 37.1%. Take `CC(C)c1cccc(C(C)C)c1NC(=O)Nc1cnc(-c2ccccc2)nc1-c1cccc(Cl)c1` [Compound 26, N-[4-(3-Chlorophenyl)-2-phenylpyrimidin-5-yl]-N'-(2,6-diisopropylphenyl)urea]: the inhibition at 0.01 µM in test [1] was 58.9%. As for `Cc1cc(C)c(NC(=O)Nc2c(C)nc(-c3ccccc3)nc2-c2ccccc2Cl)c(C)c1` [Compound 3, N-[4-(2-Chlorophenyl)-6-methyl-2-phenylpyrimidin-5-yl]-N'-(2,4,6-trimethylphenyl)urea], the inhibition at 1 µM in test [1] came out at 88.3%. Take `CC(C)c1cccc(C(C)C)c1NC(=O)Nc1ccc(C2CCCCC2)nc1-c1ccccc1Cl` [Compound 67, N-[2-(2-Chlorophenyl)-6-cyclohexylpyridin-3-yl]-N'-(2,6-diisopropylphenyl)urea]: the inhibition at 0.01 µM in test [1] is 58%.

In the case of `Cc1nc(-c2ccccc2)nc(-c2ccccc2Cl)c1NC(=O)Nc1c(C(C)C)cccc1C(C)C` [Compound 2, N-[4-(2-Chlorophenyl)-6-methyl-2-phenylpyrimidin-5-yl]-N'-(2,6-diisopropylphenyl)urea], in test [1], the inhibition at 0.01 µM was determined as 58.5% and the inhibition at 1 µM is 99.2%. In addition, in test [2], the inhibition in vivo at 30 mg/kg turned out to be 42.7%. As to `CC(C)c1cccc(C(C)C)c1NC(=O)Nc1cnc(N2CCN(C)CC2)nc1-c1ccccc1Cl` [Compound 60, N-[4-(2-Chlorophenyl)-2-(4-methyl-1-piperazino)pyrimidin-5-yl]-N'-(2,6-diisopropylphenyl)urea], the inhibition at 0.01 µM in test [1] is 40.1%. Turning to `Cc1cccc(C)c1NC(=O)Nc1cnc(-c2ccccc2)nc1-c1ccccc1Cl` [Compound 13, N-[4-(2-Chlorophenyl)-2-phenylpyrimidin-5-yl]-N'-(2,6-dimethylphenyl)urea], in test [1], the inhibition at 0.01 µM came to 40.2% and the inhibition at 1 µM was 97.5%. For `CCc1cccc(CC)c1NC(=O)Nc1cnc(N2CCCC2)nc1-c1ccccc1Cl` [Compound 53, N-[4-(2-Chlorophenyl)-2-(N-pyrrolidino)pyrimidin-5-yl]-N'-(2,6-diethylphenyl)urea], the inhibition at 0.01 µM in test [1] worked out at 70%.

`CC(C)c1cccc(C(C)C)c1NC(=O)Nc1cnc(N2CCCCC2)nc1-c1ccccc1Cl` [Compound 56, N-[4-(2-Chlorophenyl)-2-(N-piperidino)pyrimidin-5-yl]-N'-(2,6-diisopropylphenyl)urea]: in test [1], the inhibition at 0.01 µM was 69.5%. The same measure, in the same setting: to `CC(C)c1cccc(C(C)C)c1NC(=O)Nc1ccc(-c2ccccc2)nc1-c1ccccc1Cl` [Compound 63, N-[2-(2-Chlorophenyl)-6-phenylpyridin-3-yl]-N'-(2,6-diisopropylphenyl)urea] belongs 53.1%. In the case of `CCc1cccc(CC)c1NC(=O)Nc1cnc(-c2ccccc2)nc1-c1ccccc1Cl` [Compound 14, N-[4-(2-Chlorophenyl)-2-phenylpyrimidin-5-yl]-N'-(2,6-diethylphenyl)urea], in test [1], the inhibition at 0.01 µM was found to be 58.8% and the inhibition at 1 µM was 99%. Moreover, the inhibition in vivo at 30 mg/kg in test [2] stood at 59.4%. Turning to `CC(C)c1cccc(C(C)C)c1NC(=O)Nc1cnc(C(C)(C)C)nc1-c1ccccc1Cl` [Compound 50, N-[2-t-Butyl-4-(2-chlorophenyl)pyrimidin-5-yl]-N'-(2,6-diisopropylphenyl)urea], the inhibition at 0.01 µM in test [1] was found to be 48.4%.

As to `Cc1cccc(N(C)C)c1NC(=O)Nc1cnc(-c2ccccc2)nc1-c1ccccc1Cl` [Compound 19, N-[4-(2-Chlorophenyl)-2-phenylpyrimidin-5-yl]-N'-(2-dimethylamino-6-methylphenyl)urea], in test [1], the inhibition at 0.01 µM amounted to 35.9%. For the compound `CCc1cccc(CC)c1NC(=O)Nc1cnc(N2CCOCC2)nc1-c1ccccc1Cl` [Compound 57, N-[4-(2-Chlorophenyl)-2-(N-morpholino)pyrimidin-5-yl]-N'-(2,6-diethylphenyl)urea], in test [1], the inhibition at 0.01 µM was 63.2%. Besides, in test [2], the inhibition in vivo at 30 mg/kg stood at 59.5%. On to `CC(C)c1cccc(C(C)C)c1NC(=O)Nc1cnc(-c2cc(Cl)cc(Cl)c2)nc1-c1ccccc1Cl` [Compound 44, N-[4-(2-Chlorophenyl)-2-(3,5-dichlorophenyl)pyrimidin-5-yl]-N'-(2,6-diisopropylphenyl)urea], for which the inhibition at 0.01 µM in test [1] was 46.8%.

Turning to `Cc1ccc(NC(=O)Nc2c(C(C)C)cccc2C(C)C)c(-c2ccccc2Cl)n1` [Compound 64, N-[2-(2-Chlorophenyl)-6-methylpyridin-3-yl]-N'-(2,6-diisopropylphenyl)urea], the inhibition at 0.01 µM in test [1] was 43.6%.

For `Cc1nc(-c2ccccc2)nc(-c2ccccc2Cl)c1NC(=O)Nc1ccc(N(C)C)cc1` [Compound 6, N-[4-(2-Chlorophenyl)-6-methyl-2-phenylpyrimidin-5-yl]-N'-(4-dimethylaminophenyl)urea], the inhibition at 1 µM in test [1] amounted to 23%. Consider `CC(C)c1cccc(C(C)C)c1NC(=O)Nc1cnc(-c2ccccc2)nc1-c1ccccc1F` [Compound 34, N-(2,6-Diisopropylphenyl)-N'-[4-(2-fluorophenyl)-2-phenylpyrimidin-5-yl]urea], for which the inhibition at 0.01 µM in test [1] was 65.8%. Further, in test [2], the inhibition in vivo at 30 mg/kg came to 74%. As to `Cc1cccc(C(C)C)c1NC(=O)Nc1c(C)nc(-c2ccccc2)nc1-c1ccccc1Cl` [Compound 1, N-[4-(2-Chlorophenyl)-6-methyl-2-phenylpyrimidin-5-yl]-N'-(2-isopropyl-6-methylphenyl)urea], in test [1], the inhibition at 0.01 µM amounted to 16.7% and the inhibition at 1 µM turned out to be 98%. On to `CCOc1ncc(NC(=O)Nc2c(C(C)C)cccc2C(C)C)c(-c2ccccc2Cl)n1` [Compound 52, N-[4-(2-Chlorophenyl)-2-ethoxypyrimidin-5-yl]-N'-(2,6-diisopropylphenyl)urea], for which the inhibition at 0.01 µM in test [1] worked out at 64.7%. Same read-out and setting: to `CC(C)c1cccc(C(C)C)c1NC(=O)Nc1cnc(-c2ccccc2)nc1-c1ccc(Cl)cc1` [Compound 28, N-[4-(4-Chlorophenyl)-2-phenylpyrimidin-5-yl]-N'-(2,6-diisopropylphenyl)urea] belongs 40.7%. The same measure, in the same setting: to `Cc1ncc(NC(=O)Nc2c(C(C)C)cccc2C(C)C)c(-c2ccccc2Cl)n1` [Compound 46, N-[4-(2-Chlorophenyl)-2-methylpyrimidin-5-yl]-N'-(2,6-diisopropylphenyl)urea] belongs 32%; to `CCc1cccc(CC)c1NC(=O)Nc1cnc(-c2ccccc2)nc1-c1ccccc1SC` [Compound 41, N-(2,6-Diethylphenyl)-N'-[4-(2-methylthiophenyl)-2-phenylpyrimidin-5-yl]urea], 56.3%.

Turning to `Cc1cc(C)c(NC(=O)Nc2cnc(-c3ccccc3)nc2-c2ccccc2Cl)c(C)c1` [Compound 18, N-[4-(2-Chlorophenyl)-2-phenylpyrimidin-5-yl]N'-(2,4,6-trimethylphenyl) urea], in test [1], the inhibition at 1 µM came out at 79.7%.

Regarding `CCCCCCCc1ccc(NC(=O)Nc2c(C(C)C)cccc2C(C)C)c(-c2ccccc2Cl)n1` [Compound 65, N-[2-(2-Chlorophenyl)-6-(n-heptyl)pyridin-3-yl]-N'-(2,6-diisopropylphenyl)urea], the inhibition at 0.01 µM in test [1] was 29.8%. As for `O=C(Nc1cnc(-c2ccccc2)nc1-c1ccccc1Cl)Nc1c(F)cc(F)cc1F` [Compound 23, N-[4-(2-Chlorophenyl)-2-phenylpyrimidin-5-yl]-N'-(2,4,6-trifluorophenyl)urea], in test [1], the inhibition at 1 µM came to 87%. Regarding `COc1ccccc1-c1nc(-c2ccccc2)ncc1NC(=O)Nc1c(C(C)C)cccc1C(C)C` [Compound 40, N-(2,6-Diisopropylphenyl)-N'-[4-(2-methoxyphenyl)-2-phenylpyrimidin-5-yl]urea], the inhibition at 0.01 µM in test [1] stood at 47.5%.
